Where a chain is given by its changes, count along the chain named. Entries after “also recorded” stand apart in the source; their conditions may differ.
Tests used:
Format in all cases: biochemical
[1] = target: T1, PGES activity of peak C (PGES-1) (Rattus norvegicus, UniProt P83868); experiment: PGES activity of Superdex 200 gel filtration fractions of rat brain soluble fraction; settings: Superdex 200 peak C (approximately 50 kDa), in contrast to peaks A and B
T1 construct: from tissue; host or cells: brain of LPS-administered rat: 100,000 x g supernatant, 60-80% ammonium sulfate, DEAE-Sephacel, Superdex 200 peak C
T1 sequence (P83868 1-160): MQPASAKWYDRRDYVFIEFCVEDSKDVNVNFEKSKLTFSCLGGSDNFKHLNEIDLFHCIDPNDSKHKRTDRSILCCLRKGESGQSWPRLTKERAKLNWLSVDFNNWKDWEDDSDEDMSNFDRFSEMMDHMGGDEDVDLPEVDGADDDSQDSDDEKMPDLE
Protocol: (§1) PGES activity was measured as follows: Cells suspended in 20 mmol/L Tris-hydrochloride buffer (pH 7.4) were homogenized using ultrasonic homogenizer (Branson Sonifier Model 200) and centrifuged at 800×g for 5 minutes at 4° C., and the supernatant was used as the cell lysate in the following. 0.5 μg of PGH2 was added to the lysate, which was suspended with 0.1 mol/L Tris-hydrochloride buffer (pH 8.0) containing 1 mmol/L GSH, with a protein content of 10 μg, was incubated for 30 seconds at 24° C., and then 8 mmol/L FeCl2 was added to terminate the reaction. The amount of produced PGE2 was measured by Enzyme Immunoassay Kit (Cayman), and PGES activity was expressed as the amount of PGE2 produced per 30 seconds, per 10 μg of protein (ng/30 sec/10 μg protein).
150 μg/kg body LPS (Salmonella minnesota: Re595) was administered intravenously from rat tail. Rat brain was removed 2 days after the injection and was homogenized using Potter's homogenizer at 4° C. […]
A protein of a molecular weight of about 27 kDa, corresponding with the PGES activity (PGES-1), was obtained by SDS electrophoretic analysis of peak C (FIG. 3, bottom). The production of this protein was predicted to elevate in response to inflammatory stimulus due to the fact that large amount of the protein was detected in LPS-administered rats than in normal rats.

PGES-1 = target: T2, PGES-1 (Homo sapiens, UniProt Q15185); experiment: PGES activity in lysate of HEK293 cells transfected with PGES-1 cDNA; settings: lysate of HEK293 cells transfected with PGES-1, coexistence of CDNB
T2 construct: the cDNA of full-length human progesterone receptor complex component protein p23 was isolated by RT-PCR; expressed in transfected cells; host or cells: HEK293
T2 sequence (Q15185 1-160): T1 sequence (P83868 1-160) with D128N, H129N
Protocol: as §1
Peptide mapping of PGES-1 protein was carried out using V8 protease, and 3 fragments among the peptide fragments were analyzed by N-terminal amino acid sequence analyzer to determine the partial amino acid sequence thereof. According to GenBank database search with one of these amino acid sequences, the sequence completely matched to a portion of a known sequence reported as the human progesterone receptor complex component protein p23 (Johnson, J L et al., Mol. Cell. Biol., 14:1956–63, 1994). […] Thus, the cDNA was confirmed to encode the desired PGES.

PGES-2 = target: T3, PGES-2 (Homo sapiens, UniProt O14684); experiment: PGES activity in HEK293 cells transfected with PGES-2; settings: HEK293 cells transfected with PGES-2, coexistence of CDNB
T3 construct: expressed in transfected cells; host or cells: HEK293
T3 sequence (O14684 1-152): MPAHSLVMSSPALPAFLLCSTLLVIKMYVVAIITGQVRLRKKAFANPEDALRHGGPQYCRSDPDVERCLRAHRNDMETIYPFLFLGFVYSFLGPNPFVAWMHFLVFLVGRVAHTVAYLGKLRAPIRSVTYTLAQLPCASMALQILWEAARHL
Protocol: as §1

O=[N+]([O-])c1ccc(Cl)c([N+](=O)[O-])c1 [CDNB, 1-chloro-2,4-dinitrobenzene]
effect of CDNB on PGES activity of peak C [1]: strongly inhibited
effect of CDNB on GSH-dependent PGES activity of recombinant PGES-1 (PGES-1): CDNB sensitive; also recorded: suppressed
effect of CDNB on GSH-dependent PGES activity of recombinant PGES-2 (PGES-2): CDNB insensitive; also recorded: not suppressed

— patent US7169580B1, “Protein having PGE2 synthase activity and use thereof” (Chugai Seiyaku Kabushiki Kaisha, priority 2000, dated 2007)
